From US20250011318A1 (ARCUS BIOSCIENCES, INC., priority 2023, published 2025) come the findings set out here.

In assay [1] the target is T1, Cbl-b (Homo sapiens, UniProt Q13191).
T1 construct: biotin (biotinylated)
Description: Cbl-b probe displacement HTRF binding assay. To be noted: 0.4 nM biotinylated Cbl-b, 150 nM BODIPY probe. Put shortly:
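Probe-displacement HTRF in Hepes/NaCl/Triton/TCEP/BSA buffer at room temperature: compound dilutions (to 10 μM) incubated 60 min with 0.4 nM biotin-Cbl-b, 150 nM BODIPY probe added for 15 min, Tb-streptavidin read. Signal normalised to DMSO and no-protein controls; IC50 from four-parameter curve.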

In assay [2] the test system is Jurkat cells. In words: IL-2 secretion assay in CD3/CD28-activated Jurkat cells (AlphaLISA). Particulars: Homo sapiens, CD3/CD28 T Cell Activator, 24 h, IL-2 AlphaLISA. It counts as cell-based, human. Put shortly: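 IL-2 release quantified by AlphaLISA in supernatants after 24 h CD3/CD28 activation at 37° C. Compounds, 10 μM to 300 pM final in 1:2 steps, were added to 50,000 Jurkat cells/well 1 h before activation; 4-parameter fit gave EC50.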

T1 sequence (Q13191 whole entry, species assumed): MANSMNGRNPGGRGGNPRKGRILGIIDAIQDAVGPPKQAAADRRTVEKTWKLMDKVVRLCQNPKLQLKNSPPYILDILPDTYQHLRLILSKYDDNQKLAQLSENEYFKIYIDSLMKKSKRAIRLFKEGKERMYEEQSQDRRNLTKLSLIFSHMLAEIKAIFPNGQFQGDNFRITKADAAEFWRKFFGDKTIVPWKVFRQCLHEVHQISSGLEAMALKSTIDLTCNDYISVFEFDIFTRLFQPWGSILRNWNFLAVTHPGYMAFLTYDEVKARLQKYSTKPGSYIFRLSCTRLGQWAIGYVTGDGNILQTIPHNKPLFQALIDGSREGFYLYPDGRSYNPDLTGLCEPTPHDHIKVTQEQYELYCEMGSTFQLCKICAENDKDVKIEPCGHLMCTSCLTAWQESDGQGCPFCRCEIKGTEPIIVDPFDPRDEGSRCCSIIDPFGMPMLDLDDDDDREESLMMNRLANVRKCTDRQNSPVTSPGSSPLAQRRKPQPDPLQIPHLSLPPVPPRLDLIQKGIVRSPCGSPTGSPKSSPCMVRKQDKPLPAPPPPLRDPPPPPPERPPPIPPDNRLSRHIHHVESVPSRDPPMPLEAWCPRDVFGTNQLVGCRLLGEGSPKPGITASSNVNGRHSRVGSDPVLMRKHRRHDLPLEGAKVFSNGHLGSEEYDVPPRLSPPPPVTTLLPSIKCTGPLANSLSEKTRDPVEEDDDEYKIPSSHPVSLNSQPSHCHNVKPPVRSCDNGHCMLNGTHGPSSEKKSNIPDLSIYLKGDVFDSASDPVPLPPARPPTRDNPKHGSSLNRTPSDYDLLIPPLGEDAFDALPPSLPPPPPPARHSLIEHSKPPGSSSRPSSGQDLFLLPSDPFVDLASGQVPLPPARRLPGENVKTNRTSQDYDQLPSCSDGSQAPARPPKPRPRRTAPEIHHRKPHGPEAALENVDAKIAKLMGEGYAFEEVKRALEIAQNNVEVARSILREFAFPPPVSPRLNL

The molecule `Cc1cccnc1-c1cc(C#N)ccc1-c1cc(C2CC2)nc(-n2cc(C3CC3)c3cc(CN4CCC[C@H](C)C4)[nH]c3c2=O)c1` [Example 74, 4-[2-cyclopropyl-6-[4-cyclopropyl-2-[[(3S)-3-methylpiperidin-1-yl]methyl]-7-oxo-1H-pyrrolo[2,3-c]pyridin-6-yl]pyridin-4-yl]-3-(3-methylpyridin-2-yl)benzonitrile] came in with an IC50 in assay [1] below 100 nM. The molecule also showed an EC50 in assay [2] of 100 to 1000 nM.

Consider `Cn1cnnc1-c1cc(F)ccc1-c1cc(C2CC2)nc(-n2cnc3cc(C(F)C4CCCC4)[nH]c3c2=O)c1` (stereo not drawn) [Example 127, 6-[cyclopentyl(fluoro)methyl]-3-[6-cyclopropyl-4-[4-fluoro-2-(4-methyl-1,2,4-triazol-3-yl)phenyl]pyridin-2-yl]-5H-pyrrolo[3,2-d]pyrimidin-4-one], for which the IC50 in assay [1] was below 100 nM. Moreover, in assay [2], the EC50 was below 100 nM.

Regarding `Cn1cnnc1-c1cc(C#N)ccc1-c1cc(C2CC2)nc(-n2cc(C3CC3)c3cc[nH]c3c2=O)c1` [Example 4], in assay [1], the IC50 fell in the range of 1000 to 5000 nM. The same molecule had an EC50 in assay [2] above 5000 nM.

`C[C@H]1CCCN(Cc2cc3c(C4CC4)cn(-c4cc(-c5ccc(C#N)cc5-c5nncn5C(F)F)cc(C5CC5)n4)c(=O)c3[nH]2)C1` [Example 69, 4-[2-(2-{[(S)-3-methyl-1-piperidyl]methyl}-4-cyclopropyl-7-oxo-1,6-dihydro-1,6-diaza-6-indenyl)-6-cyclopropyl-4-pyridyl]-3-[4-(difluoromethyl)-4H-1,2,4-triazol-3-yl]benzonitrile] came in with an IC50 in assay [1] below 100 nM. The same molecule yielded an EC50 in assay [2] below 100 nM.

The molecule `Cc1c[nH]nc1-c1cc(C#N)ccc1-c1cc(C2CC2)nc(-n2cnc3cc(CN4CCC[C@H](C)C4)[nH]c3c2=O)c1` [Example 22, 4-[2-cyclopropyl-6-[6-[[(3S)-3-methylpiperidin-1-yl]methyl]-4-oxo-5H-pyrrolo[3,2-d]pyrimidin-3-yl]pyridin-4-yl]-3-(4-methyl-1H-pyrazol-3-yl)benzonitrile] returned an IC50 in assay [1] below 100 nM. The molecule also yielded an EC50 in assay [2] below 100 nM.

In assay [1], `Cn1cnnc1-c1cc(F)ccc1-c1cc(C2CC2)nc(-n2cnc3cc(CNCC(F)(F)F)[nH]c3c2=O)c1` [Example 33, 6-{6-cyclopropyl-4-[4-fluoro-2-(4-methyl-4H-1,2,4-triazol-3-yl)phenyl]-2-pyridyl}-2-[(2,2,2-trifluoroethylamino)methyl]-1,6-dihydro-1,4,6-triaza-7-indenone] yielded an IC50 below 100 nM. The same molecule came in with an EC50 in assay [2] of 100 to 1000 nM.

In turn, `C[C@H]1CCCCN1Cc1cc2c(C#N)cn(-c3cc(-c4c(F)cc(F)cc4-c4nccn4C)cc(C4CC4)n3)c(=O)c2[nH]1` [Example 89, 2-{[(S)-2-methyl-1-piperidyl]methyl}-6-{6-cyclopropyl-4-[4,6-difluoro-2-(1-methyl-2-imidazolyl)phenyl]-2-pyridyl}-7-oxo-1,6-dihydro-1,6-diaza-4-indenecarbonitrile] returned an IC50 in assay [1] below 100 nM. In assay [2], the EC50 was below 100 nM.

The molecule `CC1(NCc2cc3c(C4CC4)cn(-c4cc(-c5ccc(C#N)cc5-c5ncccc5C(F)(F)F)cc(C5CC5)n4)c(=O)c3[nH]2)CCC1` [Example 73, 4-(6-cyclopropyl-2-{4-cyclopropyl-2-[(1-methylcyclobutylamino)methyl]-7-oxo-1,6-dihydro-1,6-diaza-6-indenyl}-4-pyridyl)-3-[3-(trifluoromethyl)-2-pyridyl]benzonitrile] showed an IC50 in assay [1] below 100 nM. In assay [2], the EC50 was in the range of 100 to 1000 nM.

In assay [1], `[2H]C([2H])([2H])n1ccnc1-c1cc(C#N)ccc1-c1cc(C2CC2)nc(-n2cc(C3CC3)c3cc(CN4CCC[C@H](C)C4)[nH]c3c2=O)c1` [Example 14, 4-[2-(2-{[(S)-3-methyl-1-piperidyl]methyl}-4-cyclopropyl-7-oxo-1,6-dihydro-1,6-diaza-6-indenyl)-6-cyclopropyl-4-pyridyl]-3-{1-[(^2H3)methyl]-2-imidazolyl}benzonitrile] showed an IC50 below 100 nM. In addition, the concentration for a half-maximal effect (EC50) in assay [2] is below 100 nM.

On to `COCCN(C)Cc1cc2ncn(-c3cc(-c4ccc(F)cc4-c4nc(C#N)cn4C)cc(C4CC4)n3)c(=O)c2[nH]1` [Example 108, 2-{2-[6-cyclopropyl-2-(2-{[(2-methoxyethyl)-N-methylamino]methyl}-7-oxo-1,6-dihydro-1,4,6-triaza-6-indenyl)-4-pyridyl]-5-fluorophenyl}-1-methyl-4-imidazolecarbonitrile], for which the IC50 in assay [1] is below 100 nM. Further, in assay [2], the EC50 is below 100 nM.

`Cn1cnnc1-c1cc(F)ccc1-c1cc(C2CC2)nc(-n2cc(C(F)(F)F)c3cc[nH]c3c2=O)c1` [Example 141, 6-[6-cyclopropyl-4-[4-fluoro-2-(4-methyl-1,2,4-triazol-3-yl)phenyl]pyridin-2-yl]-4-(trifluoromethyl)-1H-pyrrolo[2,3-c]pyridin-7-one] registered an IC50 in assay [1] below 100 nM. In assay [2], the EC50 is below 100 nM.

Take `CNCCN(C)c1cc(-c2ccc(C#N)cc2-c2nncn2C)cc(-n2cc(C3CC3)c3cc(CN4CCC[C@H](C)C4)[nH]c3c2=O)n1` [Example 3, 4-(2-{N-methyl[2-(methylamino)ethyl]amino}-6-(2-{[(S)-3-methyl-1-piperidyl]methyl}-4-cyclopropyl-7-oxo-1,6-dihydro-1,6-diaza-6-indenyl)-4-pyridyl)-3-(4-methyl-4H-1,2,4-triazol-3-yl)benzonitrile]: the IC50 in assay [1] was 100 to 1000 nM. Moreover, the concentration for a half-maximal effect (EC50) in assay [2] lay in the range of 1000 to 5000 nM.

For the molecule `Cn1ccnc1-c1cc(F)ccc1-c1cc(C2CC2)nc(-n2cc(C3CC3)c3cc(CNC4(CO)CCC4)[nH]c3c2=O)c1` [Example 53, 4-cyclopropyl-6-{6-cyclopropyl-4-[4-fluoro-2-(1-methyl-2-imidazolyl)phenyl]-2-pyridyl}-2-{[1-(hydroxymethyl)cyclobutylamino]methyl}-1,6-dihydro-1,6-diaza-7-indenone], the IC50 in assay [1] was below 100 nM. Further, the EC50 in assay [2] was below 100 nM.

`Cc1ccnnc1-c1cc(C#N)ccc1-c1cc(C2CC2)nc(-n2cc(C3CC3)c3cc(CNC4(CO)CCC4)[nH]c3c2=O)c1` [Example 76, 4-[2-Cyclopropyl-6-[4-cyclopropyl-2-[[[1-(hydroxymethyl)cyclobutyl]-amino]methyl]-7-oxo-1H-pyrrolo[2,3-c]pyridin-6-yl]pyridin-4-yl]-3-(4-methylpyridazin-3-yl)benzonitrile] registered an IC50 in assay [1] below 100 nM. In assay [2], this molecule had an EC50 below 100 nM.

In assay [1], `Cn1cnnc1-c1cc(F)ccc1-c1cc(C2CC2)nc(-n2cnc3cc(C4CCOC4)[nH]c3c2=O)c1` (stereo not drawn) [Example 125, 3-[6-cyclopropyl-4-[4-fluoro-2-(4-methyl-1,2,4-triazol-3-yl)phenyl]-pyridin-2-yl]-6-(oxolan-3-yl)-5H-pyrrolo[3,2-d]pyrimidin-4-one] came in with an IC50 below 100 nM. The molecule also came in with an EC50 in assay [2] of 100 to 1000 nM.

`C[C@@H]1CN(Cc2cc3c(C4CC4)cn(-c4cc(-c5c(F)cc(F)cc5-c5nccn5C)cc(C5CC5)n4)c(=O)c3[nH]2)CCO1` [Example 65, 2-{[(R)-2-methyl-4-morpholinyl]methyl}-4-cyclopropyl-6-{6-cyclopropyl-4-[4,6-difluoro-2-(1-methyl-2-imidazolyl)phenyl]-2-pyridyl}-1,6-dihydro-1,6-diaza-7-indenone] gave an IC50 in assay [1] below 100 nM. Besides, in assay [2], the EC50 was below 100 nM.

The molecule `COCCNCc1cc2ncn(-c3cc(-c4ccc(C#N)cc4-c4nc(C#N)cn4C)cc(C4CC4)n3)c(=O)c2[nH]1` [Example 116, 2-[5-cyano-2-[2-cyclopropyl-6-[6-[(2-methoxyethylamino)methyl]-4-oxo-5H-pyrrolo[3,2-d]pyrimidin-3-yl]pyridin-4-yl]phenyl]-1-methylimidazole-4-carbonitrilef] displayed an IC50 in assay [1] below 100 nM. Also, the EC50 in assay [2] was below 100 nM.

In the case of `Cn1cnnc1-c1cc(F)ccc1-c1cc(C2CC2)nc(-n2cc(C#N)c3cc(C(N)c4cccnc4)[nH]c3c2=O)c1` (stereo not drawn) [Example 94, 2-[Amino(3-pyridyl)methyl]-6-{6-cyclopropyl-4-[4-fluoro-2-(4-methyl-4H-1,2,4-triazol-3-yl)phenyl]-2-pyridyl}-7-oxo-1,6-dihydro-1,6-diaza-4-indenecarbonitrile], in assay [1], the IC50 was below 100 nM. Moreover, in assay [2], the EC50 was 100 to 1000 nM.

`Cn1cc(C#N)nc1-c1cc(C#N)ccc1-c1cc(C2CC2)nc(-n2cnc3cc(CNC4(C)CCC4)[nH]c3c2=O)c1` [Example 115, 2-[5-cyano-2-[2-cyclopropyl-6-[6-[[(1-methylcyclobutyl)amino]methyl]-4-oxo-5H-pyrrolo[3,2-d]pyrimidin-3-yl]pyridin-4-yl]phenyl]-1-methylimidazole-4-carbonitrile] returned an IC50 in assay [1] below 100 nM. The EC50 in assay [2] was below 100 nM.

In the case of `Cc1cc2ncn(-c3cc(-c4ccc(F)cc4-c4nncn4C)cc(C4CC4)n3)c(=O)c2[nH]1` [Example 124, 3-[6-cyclopropyl-4-[4-fluoro-2-(4-methyl-1,2,4-triazol-3-yl)phenyl]-pyridin-2-yl]-6-methyl-5H-pyrrolo[3,2-d]pyrimidin-4-one], the IC50 in assay [1] is below 100 nM. This molecule returned an EC50 in assay [2] of 100 to 1000 nM.

`Cn1cnnc1-c1cc(F)ccc1-c1cc(C2CC2)nc(-n2cnc3cc(CNCCOC(F)(F)F)[nH]c3c2=O)c1` [Example 30, 6-{6-cyclopropyl-4-[4-fluoro-2-(4-methyl-4H-1,2,4-triazol-3-yl)phenyl]-2-pyridyl}-2-[(2-trifluoromethoxyethylamino)methyl]-1,6-dihydro-1,4,6-triaza-7-indenone] came in with an IC50 in assay [1] below 100 nM. Besides, the EC50 in assay [2] lay within 100 to 1000 nM.
